Experimental data reported in ChEMBL document CHEMBL3774317, “Design and synthesis of novel tamoxifen analogues that avoid CYP2D6 metabolism” (Eur J Med Chem, 2016).

How the values were obtained:
Assay type in all cases: functional
[1] = system: M14; assay: Cytotoxicity against human M14 cells assessed as cell growth at 10^-8 M after 48 hrs by SRB assay; conditions: M14, 48 h, read-out: Activity
[2] = Cytotoxicity against human MOLT4 cells assessed as cell growth at 10^-6 M after 48 hrs by SRB assay; conditions: MOLT-4, 48 h, read-out: Activity
[3] = Cytotoxicity against human Caki1 cells assessed as cell growth at 10^-4 M after 48 hrs by SRB assay; conditions: CAKI-1, 48 h, read-out: Activity
[4] = Cytotoxicity against human SF539 cells assessed as growth inhibition after 48 hrs by SRB assay; conditions: SF-539, 48 h
[5] = Cytotoxicity against human HL-60(TB) cells assessed as cell growth at 10^-4 M after 48 hrs by SRB assay; conditions: HL-60, 48 h, read-out: Activity
[6] = Cytotoxicity against human LOXIMVI cells assessed as cell growth at 10^-7 M after 48 hrs by SRB assay; conditions: LOX IMVI, read-out: Activity
[7] = system: SK-MEL-28; assay: Cytotoxicity against human SK-MEL-28 cells assessed as cell growth at 10^-8 M after 48 hrs by SRB assay; conditions: SK-MEL-28, 48 h, read-out: Activity
[8] = Cytotoxicity against human HCC2998 cells assessed as cell growth at 10^-7 M after 48 hrs by SRB assay; conditions: HCC 2998, 48 h, read-out: Activity
[9] = system: A549; assay: Cytotoxicity against human A549 cells assessed as cell growth at 10^-7 M after 48 hrs by SRB assay; conditions: A549, 48 h, read-out: Activity
[10] = system: HT-29; assay: Cytotoxicity against human HT-29 cells assessed as growth inhibition after 48 hrs by SRB assay; conditions: HT-29, 48 h; for CC50: read-out: LC50 (the source's name)
[11] = Cytotoxicity against human SF539 cells assessed as cell growth at 10^-6 M after 48 hrs by SRB assay; conditions: SF-539, 48 h, read-out: Activity
[12] = Cytotoxicity against human OVCAR8 cells assessed as cell growth at 10^-8 M after 48 hrs by SRB assay; conditions: OVCAR-8, 48 h, read-out: Activity
[13] = Cytotoxicity against human HCT15 cells assessed as cell growth at 10^-7 M after 48 hrs by SRB assay; conditions: HCT-15, 48 h, read-out: Activity
[14] = system: NCI-H322M; assay: Cytotoxicity against human NCI-H322M cells assessed as cell growth at 10^-7 M after 48 hrs by SRB assay; conditions: read-out: Activity
[15] = system: NCI-H460; assay: Cytotoxicity against human NCI-H460 cells assessed as cell growth at 10^-4 M after 48 hrs by SRB assay; conditions: NCI-H460, 48 h, read-out: Activity
[16] = Cytotoxicity against human OVCAR5 cells assessed as cell growth at 10^-7 M after 48 hrs by SRB assay; conditions: OVCAR-5, 48 h, read-out: Activity
[17] = Cytotoxicity against human RXF393 cells assessed as cell growth at 10^-4 M after 48 hrs by SRB assay; conditions: RXF 393, 48 h, read-out: Activity
[18] = system: MDA-MB-468; assay: Cytotoxicity against human MDA-MB-468 cells assessed as cell growth at 50 uM after 48 hrs by SRB assay; conditions: MDA-MB-468, 48 h, read-out: Activity
[19] = Cytotoxicity against human OVCAR4 cells assessed as cell growth at 5 uM after 48 hrs by SRB assay; conditions: OVCAR-4, 48 h, read-out: Activity
[20] = Cytotoxicity against human UACC62 cells assessed as cell growth at 5 nM after 48 hrs by SRB assay; conditions: UACC-62, 48 h, read-out: Activity
[21] = Cytotoxicity against human HOP62 cells assessed as cell growth at 5 nM after 48 hrs by SRB assay; conditions: HOP-62, 48 h, read-out: Activity
[22] = Cytotoxicity against human SW620 cells assessed as cell growth at 50 nM after 48 hrs by SRB assay; conditions: SW-620, 48 h, read-out: Activity
[23] = Cytotoxicity against human SF539 cells assessed as cell growth at 5 nM after 48 hrs by SRB assay; conditions: SF-539, 48 h, read-out: Activity
[24] = system: MCF7; assay: Cytotoxicity against human MCF7 cells assessed as cell growth at 0.5 uM after 48 hrs by SRB assay; conditions: MCF7, 48 h, read-out: Activity
[25] = Cytotoxicity against human IGROV1 cells assessed as cell growth at 50 uM after 48 hrs by SRB assay; conditions: IGROV-1, 48 h, read-out: Activity
[26] = system: HT-29; assay: Cytotoxicity against human HT-29 cells assessed as cell growth at 50 nM after 48 hrs by SRB assay; conditions: HT-29, 48 h, read-out: Activity
[27] = system: KM12; assay: Cytotoxicity against human KM12 cells assessed as cell growth at 0.5 uM after 48 hrs by SRB assay; conditions: KM12, 48 h, read-out: Activity
[28] = system: NCI-H23; assay: Cytotoxicity against human NCI-H23 cells assessed as cell growth at 0.5 uM after 48 hrs by SRB assay; conditions: NCI-H23, 48 h, read-out: Activity
[29] = Cytotoxicity against human HL-60(TB) cells assessed as cell growth at 50 nM after 48 hrs by SRB assay; conditions: HL-60, 48 h, read-out: Activity
[30] = system: A549; assay: Cytotoxicity against human A549 cells assessed as cell growth at 50 uM after 48 hrs by SRB assay; conditions: A549, 48 h, read-out: Activity
[31] = system: SN12C; assay: Cytotoxicity against human SN12C cells assessed as cell growth at 5 nM after 48 hrs by SRB assay; conditions: read-out: Activity
[32] = Cytotoxicity against human UACC257 cells assessed as cell growth at 5 nM after 48 hrs by SRB assay; conditions: UACC-257, 48 h, read-out: Activity
[33] = system: SK-MEL-5; assay: Cytotoxicity against human SK-MEL-5 cells assessed as cell growth at 5 uM after 48 hrs by SRB assay; conditions: SK-MEL-5, 48 h, read-out: Activity
[34] = Cytotoxicity against human DU145 cells assessed as cell growth at 0.5 uM after 48 hrs by SRB assay; conditions: DU-145, 48 h, read-out: Activity
[35] = Cytotoxicity against human OVCAR4 cells assessed as cell growth at 50 nM after 48 hrs by SRB assay; conditions: OVCAR-4, 48 h, read-out: Activity
[36] = system: MDA-MB-435; assay: Cytotoxicity against human MDA-MB-435 cells assessed as cell growth at 50 uM after 48 hrs by SRB assay; conditions: MDA-MB-435, 48 h, read-out: Activity
[37] = system: HT-29; assay: Cytotoxicity against human HT-29 cells assessed as cell growth at 5 uM after 48 hrs by SRB assay; conditions: HT-29, 48 h, read-out: Activity
[38] = system: A498; assay: Cytotoxicity against human A498 cells assessed as cell growth at 0.5 uM after 48 hrs by SRB assay; conditions: A498, 48 h, read-out: Activity
[39] = system: HT-29; assay: Cytotoxicity against human HT-29 cells assessed as cell growth at 0.5 uM after 48 hrs by SRB assay; conditions: HT-29, 48 h, read-out: Activity

`C/C(=C(/c1ccc(O)cc1)c1ccc(OCCN2CCCC2)cc1)c1ccccc1` gave a growth at 0.01 µM [1] of 92%, a growth at 1 µM [2] of 92% and a growth at 100 µM [3] of -100%. It also gave a GI50 [4] of 1.81 µM, an LC50 [4] of 7.79 µM and a TGI [4] of 3.76 µM. For the same compound, the growth at 100 µM [5] was -69%, the growth at 0.1 µM [6] was 95% and the growth at 0.01 µM [7] was 90%. For the same compound, the growth at 0.1 µM [8] was 92%, the growth at 0.1 µM [9] was 102% and the GI50 [10] was 1.35 µM. The TGI [10] was 3.2 µM, the CC50 [10] was 7.58 µM and the growth at 1 µM [11] was 91%. The growth at 0.01 µM [12] was 104%, the growth at 0.1 µM [13] was 91% and the growth at 0.1 µM [14] was 95%. It also gave a growth at 100 µM [15] of -92%, a growth at 0.1 µM [16] of 90% and a growth at 100 µM [17] of -81%.

In the case of `CCCCCCCCCC(=O)Oc1ccc(/C(=C(/C)c2ccccc2)c2ccc(OCCN3CCCC3)cc2)cc1`, the growth at 50 µM [18] is reported as -87%, the growth at 5 µM [19] is reported as 78% and the growth at 0.005 µM [20] is reported as 100%. For the same compound, the growth at 0.005 µM [21] was 103%, the GI50 [4] was 8.7 µM and the LC50 [4] was 32.9 µM. It also gave a TGI [4] of 16.9 µM, a growth at 0.05 µM [22] of 97% and a growth at 0.005 µM [23] of 105%. For the same compound, the growth at 0.5 µM [24] was 29%, the growth at 50 µM [25] was -58% and the growth at 0.05 µM [26] was 98%. For the same compound, the TGI [10] was 12.3 µM, the CC50 [10] was 27 µM and the growth at 0.5 µM [27] was 76%. It also gave a growth at 0.5 µM [28] of 71%, a growth at 0.05 µM [29] of 98% and a growth at 50 µM [30] of -82%. It also gave a growth at 0.005 µM [31] of 102%, a growth at 0.005 µM [32] of 95% and a growth at 5 µM [33] of 90%. It also gave a growth at 0.5 µM [34] of 81%, a growth at 0.05 µM [35] of 92% and a growth at 50 µM [36] of -100%. The growth at 5 µM [37] was 58%, the growth at 0.5 µM [38] was 49% and the growth at 0.5 µM [39] was 12%.
